Data: patent EP0510151B1, “IMPROVED ANTI-PLAQUE COMPOSITIONS COMPRISING A COMBINATION OF MORPHOLINOAMINO ALCOHOL AND ANTI-MICROBIAL AGENT” (Pharmacia AB, priority 1990, dated 1992)

Assays:
[1] = test system: Bacteroides melaninogenicus; assay: Minimal inhibitory concentration (MIC) by broth dilution and checkerboard titration of combinations; type: cell-based
Description: (§1) The minimal inhibitory concentration (MIC) of the test compound is the minimum concentration of compound required to inhibit growth of the test microorganism. The MIC is determined by serially diluting the test solution through tubes of sterile broth. The tubes are inoculated and incubated at 37°C for 48 hours. At the end of the incubation time, growth is checked macroscopically. The lowest concentration of test compound to inhibit growth is the MIC. This technique is used to assess antimicrobial activity of combinations. The checkerboard is the pattern found by multiple combinations of two agents in concentrations equal to, above and below their minimal inhibitory concentration for the microorganism tested against. The checkerboard consists of columns which contain the same amount of one agent which is diluted along the x-axis and rows which each contain the same amount of the second agent diluted along the y-axis. Thus each tube is a unique combination of the two agents. […] A method for illustrating the effect of the combination of the two agents is obtained by plotting the MIC's of each agent alone and the MIC's for these agents in combination. Antimicrobial synergy is indicated if the MIC's for the agents in combination are lower than the MIC's for the agents alone.

Streptococcus mutans = assay: as above; type: cell-based
Description: as §1

[2] = B. melaninogenicus, agent alone (other agent 0), Table VII
[3] = S. mutans, agent alone (other agent 0), Table VII
[4] = B. melaninogenicus, agent alone (other agent 0), second table of Example XI, comparative
[5] = S. mutans, agent alone (other agent 0), second table of Example XI, comparative
[6] = B. melaninogenicus, agent alone (other agent 0), Table IX
[7] = B. melaninogenicus, agent alone (other agent 0), Table X
[8] = B. melaninogenicus, agent alone (other agent 0), Table XI, comparative
[9] = S. mutans, agent alone (other agent 0), Table IX
[10] = S. mutans, agent alone (other agent 0), Table X
[11] = S. mutans, agent alone (other agent 0), Table XI, comparative

SMILES: CCCCCCCCCCCCOCC(O)CO (racemic) [1-0-dodecyl-rac-glycerol, reference compound]
- Minimum Inhibitory Concentration [1, 2]: 10 miligrams/liter
- Minimum Inhibitory Concentration ([1]; B. melaninogenicus, in combination with 4 miligrams/liter morpholinoamino alcohol HCl): 6 miligrams/liter
- Minimum Inhibitory Concentration ([1]; B. melaninogenicus, in combination with 20 miligrams/liter morpholinoamino alcohol HCl): 2 miligrams/liter
- Minimum Inhibitory Concentration (Streptococcus mutans; [3]): 10 miligrams/liter
- Minimum Inhibitory Concentration (Streptococcus mutans; S. mutans, in combination with 4 miligrams/liter morpholinoamino alcohol HCl): 6 miligrams/liter
- Minimum Inhibitory Concentration (Streptococcus mutans; S. mutans, in combination with 100 miligrams/liter morpholinoamino alcohol HCl): 2 miligrams/liter

SMILES: OCc1ccc(Cl)cc1Cl [2,4-dichloro-alcohol, 2,4-dichlorobenzyl alcohol, reference compound]
- Minimum Inhibitory Concentration [1, 4]: 100 milligrams/liter
- Minimum Inhibitory Concentration ([1]; B. melaninogenicus, in combination with 50 milligrams/liter morpholinoamino alcohol HCl, the 12th table): 100 milligrams/liter
- Minimum Inhibitory Concentration ([1]; B. melaninogenicus, in combination with 100 milligrams/liter morpholinoamino alcohol HCl, the 12th table): 100 milligrams/liter
- Minimum Inhibitory Concentration (Streptococcus mutans; [5]): 50 milligrams/liter
- Minimum Inhibitory Concentration (Streptococcus mutans; S. mutans, in combination with 50 milligrams/liter morpholinoamino alcohol HCl, the 12th table): 50 milligrams/liter
- Minimum Inhibitory Concentration (Streptococcus mutans; S. mutans, in combination with 100 milligrams/liter morpholinoamino alcohol HCl, the 12th table): 50 milligrams/liter

SMILES: CCCC(CCC)CCCC1COCCN1CCO.Cl (stereo not drawn) [3-(4-propylheptyl)-4-(2-hydroxyethyl) morpholine hydrochloride]
- Minimum Inhibitory Concentration ([1]; B. melaninogenicus (J18M2), agent alone (other agent 0), Table VIII): 200 milligrams/liter
- Minimum Inhibitory Concentration ([1]; B. melaninogenicus (J18M2), in combination with 0.003 milligrams/liter cetyl pyridinium chloride): 100 milligrams/liter
- Minimum Inhibitory Concentration ([1]; B. melaninogenicus (J18M2), in combination with 0.006 milligrams/liter cetyl pyridinium chloride): 50 milligrams/liter
- Minimum Inhibitory Concentration [1, 6]: 200 milligrams/liter
- Minimum Inhibitory Concentration [1, 2]: 200 miligrams/liter
- Minimum Inhibitory Concentration [1, 7]: 200 milligrams/liter
- Minimum Inhibitory Concentration [1, 8]: 200 milligrams/liter
- Minimum Inhibitory Concentration [1, 4]: 200 milligrams/liter
- Minimum Inhibitory Concentration ([1]; B. melaninogenicus, in combination with 0.125 milligrams/liter hexitidine): 100 milligrams/liter
- Minimum Inhibitory Concentration ([1]; B. melaninogenicus, in combination with 0.25 milligrams/liter hexitidine): 50 milligrams/liter
- Minimum Inhibitory Concentration ([1]; B. melaninogenicus, in combination with 2 miligrams/liter 1-0-dodecyl-rac-glycerol): 20 miligrams/liter
- Minimum Inhibitory Concentration ([1]; B. melaninogenicus, in combination with 2.5 milligrams/liter amyl-m-cresol): 100 milligrams/liter
- Minimum Inhibitory Concentration ([1]; B. melaninogenicus, in combination with 6 miligrams/liter 1-0-dodecyl-rac-glycerol): 4 miligrams/liter
- Minimum Inhibitory Concentration ([1]; B. melaninogenicus, in combination with 6.25 milligrams/liter domiphen bromide): 100 milligrams/liter
- Minimum Inhibitory Concentration ([1]; B. melaninogenicus, in combination with 10 milligrams/liter amyl-m-cresol): 50 milligrams/liter
- Minimum Inhibitory Concentration ([1]; B. melaninogenicus, in combination with 12.5 milligrams/liter domiphen bromide): 50 milligrams/liter
- Minimum Inhibitory Concentration ([1]; B. melaninogenicus, in combination with 100 milligrams/liter 2, 4-dichloro-alcohol (row with 50 morpholinoamino alcohol HCl)): 50 milligrams/liter
- Minimum Inhibitory Concentration ([1]; B. melaninogenicus, in combination with 100 milligrams/liter 2, 4-dichloro-alcohol (row with 100 morpholinoamino alcohol HCl)): 100 milligrams/liter
- Minimum Inhibitory Concentration ([1]; B. melaninogenicus, in the absence of the dodecyl glycerol): 200 milligrams per liter
- Minimum Inhibitory Concentration (Streptococcus mutans; S. mutans (ATCC 2517S), agent alone (other agent 0), Table VIII): 200 milligrams/liter
- Minimum Inhibitory Concentration (Streptococcus mutans; [9]): 200 milligrams/liter
- Minimum Inhibitory Concentration (Streptococcus mutans; [3]): 200 miligrams/liter
- Minimum Inhibitory Concentration (Streptococcus mutans; [10]): 200 milligrams/liter
- Minimum Inhibitory Concentration (Streptococcus mutans; [11]): 200 milligrams/liter
- Minimum Inhibitory Concentration (Streptococcus mutans; [5]): 200 milligrams/liter
- Minimum Inhibitory Concentration (Streptococcus mutans; S. mutans, in combination with 0.25 milligrams/liter hexitidine (row with 50 morpholinoamino alcohol HCl)): 50 milligrams/liter
- Minimum Inhibitory Concentration (Streptococcus mutans; S. mutans, in combination with 0.25 milligrams/liter hexitidine (row with 100 morpholinoamino alcohol HCl)): 100 milligrams/liter
- Minimum Inhibitory Concentration (Streptococcus mutans; S. mutans, in combination with 0.5 milligrams/liter domiphen bromide): 100 milligrams/liter
- Minimum Inhibitory Concentration (Streptococcus mutans; S. mutans, in combination with 1.0 milligrams/liter domiphen bromide): 50 milligrams/liter
- Minimum Inhibitory Concentration (Streptococcus mutans; S. mutans, in combination with 2 miligrams/liter 1-0-dodecyl-rac-glycerol): 100 miligrams/liter
- Minimum Inhibitory Concentration (Streptococcus mutans; S. mutans, in combination with 6 miligrams/liter 1-0-dodecyl-rac-glycerol): 4 miligrams/liter
- Minimum Inhibitory Concentration (Streptococcus mutans; S. mutans, in combination with 10 milligrams/liter amyl-m-cresol (row with 50 morpholinoamino alcohol HCl)): 50 milligrams/liter
- Minimum Inhibitory Concentration (Streptococcus mutans; S. mutans, in combination with 10 milligrams/liter amyl-m-cresol (row with 100 morpholinoamino alcohol HCl)): 100 milligrams/liter
- Minimum Inhibitory Concentration (Streptococcus mutans; S. mutans, in combination with 50 milligrams/liter 2, 4-dichloro-alcohol (row with 50 morpholinoamino alcohol HCl)): 50 milligrams/liter
- Minimum Inhibitory Concentration (Streptococcus mutans; S. mutans, in combination with 50 milligrams/liter 2, 4-dichloro-alcohol (row with 100 morpholinoamino alcohol HCl)): 100 milligrams/liter
- Minimum Inhibitory Concentration (Streptococcus mutans; S. mutans, in the absence of the dodecyl glycerol): 200 milligrams per liter

SMILES: CCCCCc1ccc(C)cc1O [amyl-m-cresol, reference compound]
- Minimum Inhibitory Concentration [1, 8]: 10 milligrams/liter
- Minimum Inhibitory Concentration ([1]; B. melaninogenicus, in combination with 50 milligrams/liter morpholinoamino alcohol HCl, Table XI): 10 milligrams/liter
- Minimum Inhibitory Concentration ([1]; B. melaninogenicus, in combination with 100 milligrams/liter morpholinoamino alcohol HCl, Table XI): 2.5 milligrams/liter
- Minimum Inhibitory Concentration (Streptococcus mutans; [11]): 10 milligrams/liter
- Minimum Inhibitory Concentration (Streptococcus mutans; S. mutans, in combination with 50 milligrams/liter morpholinoamino alcohol HCl, Table XI): 10 milligrams/liter
- Minimum Inhibitory Concentration (Streptococcus mutans; S. mutans, in combination with 100 milligrams/liter morpholinoamino alcohol HCl, Table XI): 10 milligrams/liter

SMILES: CCCCCCCCCCCC[N+](C)(C)CCOc1ccccc1 [domiphen bromide, reference compound]
- Minimum Inhibitory Concentration [1, 6]: 50 milligrams/liter
- Minimum Inhibitory Concentration ([1]; B. melaninogenicus, in combination with 50 milligrams/liter morpholinoamino alcohol HCl, Table IX): 12.5 milligrams/liter
- Minimum Inhibitory Concentration ([1]; B. melaninogenicus, in combination with 100 milligrams/liter morpholinoamino alcohol HCl, Table IX): 6.25 milligrams/liter
- Minimum Inhibitory Concentration (Streptococcus mutans; [9]): 1.0 milligrams/liter
- Minimum Inhibitory Concentration (Streptococcus mutans; S. mutans, in combination with 50 milligrams/liter morpholinoamino alcohol HCl, Table IX): 1.0 milligrams/liter
- Minimum Inhibitory Concentration (Streptococcus mutans; S. mutans, in combination with 100 milligrams/liter morpholinoamino alcohol HCl, Table IX): 0.5 milligrams/liter

SMILES: CCCCC(CC)CN1CN(CC(CC)CCCC)CC(C)(N)C1 (stereo not drawn) [hexitidine, hexetidine, reference compound]
- Minimum Inhibitory Concentration [1, 7]: 1.0 milligrams/liter
- Minimum Inhibitory Concentration ([1]; B. melaninogenicus, in combination with 50 milligrams/liter morpholinoamino alcohol HCl, Table X): 0.25 milligrams/liter
- Minimum Inhibitory Concentration ([1]; B. melaninogenicus, in combination with 100 milligrams/liter morpholinoamino alcohol HCl, Table X): 0.125 milligrams/liter
- Minimum Inhibitory Concentration (Streptococcus mutans; [10]): 1.0 milligrams/liter
- Minimum Inhibitory Concentration (Streptococcus mutans; S. mutans, in combination with 50 milligrams/liter morpholinoamino alcohol HCl, Table X): 0.25 milligrams/liter
- Minimum Inhibitory Concentration (Streptococcus mutans; S. mutans, in combination with 100 milligrams/liter morpholinoamino alcohol HCl, Table X): 0.25 milligrams/liter
